This note sets out measurements from US20240116988A1, “ANTI-ROR1 MACROCYCLIC PEPTIDES AND COMPOSITIONS” (BRISTOL-MYERS SQUIBB COMPANY, priority 2022, published 2024).

This assay addresses T1, human ROR1 (Homo sapiens, UniProt Q01973).
T1 construct: host or cells: HEK 293T cells, Tet-on system induced with doxycycline
As to the kind of experiment: ROR1 high content cell-based binding assay. To be noted: read-out: ROR1 Binding 293T Human HC Cell Based Assay IC50. The method in brief:
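Doxycycline-induced 293T cells expressing human ROR1, seeded overnight, were treated with compound plus 5-FAM-labeled ROR1-binding probe peptide (30 nM final) for 1 h at 37 °C. After washing and formaldehyde/Hoechst fixation, cell-bound probe fluorescence was read by high-content imaging.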

Each structure is given as a SMILES string. Starred links: 1 amine or outer side, 2 acyl side, 3 side chain; linkers in the order of their positions; H or OH if unused. Positions of bridges follow the written chain, without caps; N, C: chain ends. Non-standard residues stand in square brackets, D forms with d. Residues, ends and D or L forms follow the SMILES beside them. X1 = CC(C)[C@H](CC(=O)[C@@H](N[*:1])C(C)C)C(=O)[*:2]; Bip = N[C@@H](Cc1ccc(-c2ccccc2)cc1)C(=O)O; NMeF = CN[C@@H](Cc1ccccc1)C(=O)O; AEEA = NCCOCCOCC(=O)O; Sar = CNCC(=O)O

T1 sequence (Q01973 30-937): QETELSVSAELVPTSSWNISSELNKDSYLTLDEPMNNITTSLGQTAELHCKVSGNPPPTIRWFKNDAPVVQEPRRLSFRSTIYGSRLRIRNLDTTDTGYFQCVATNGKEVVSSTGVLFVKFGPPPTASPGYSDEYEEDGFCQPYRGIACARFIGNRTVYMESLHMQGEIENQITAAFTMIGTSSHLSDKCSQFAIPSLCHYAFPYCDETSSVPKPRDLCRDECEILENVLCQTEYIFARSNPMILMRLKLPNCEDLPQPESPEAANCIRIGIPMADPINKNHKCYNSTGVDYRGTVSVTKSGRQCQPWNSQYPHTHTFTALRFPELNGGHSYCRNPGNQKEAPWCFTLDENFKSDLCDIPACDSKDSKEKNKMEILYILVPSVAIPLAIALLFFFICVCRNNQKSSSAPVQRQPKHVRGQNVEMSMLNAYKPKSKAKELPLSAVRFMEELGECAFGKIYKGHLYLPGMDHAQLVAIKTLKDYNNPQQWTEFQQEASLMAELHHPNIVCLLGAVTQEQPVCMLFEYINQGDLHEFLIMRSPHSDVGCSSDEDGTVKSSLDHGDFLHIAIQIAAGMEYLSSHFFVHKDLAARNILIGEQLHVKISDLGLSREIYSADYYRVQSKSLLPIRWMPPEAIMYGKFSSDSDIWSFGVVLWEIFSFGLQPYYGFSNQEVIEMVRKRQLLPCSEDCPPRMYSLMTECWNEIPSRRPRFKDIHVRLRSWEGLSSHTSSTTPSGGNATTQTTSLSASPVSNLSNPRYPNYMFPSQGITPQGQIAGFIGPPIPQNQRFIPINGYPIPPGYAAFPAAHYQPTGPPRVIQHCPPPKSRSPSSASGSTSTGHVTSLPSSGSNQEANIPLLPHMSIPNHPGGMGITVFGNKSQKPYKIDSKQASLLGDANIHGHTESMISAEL

Broadly, the IC50 is the midpoint of a concentration-inhibition curve. As to `CC(C)C[C@@H]1NC(=O)[C@H](Cc2ccc(O)cc2)NC(=O)[C@H](Cc2ccccc2)NC(=O)CSC[C@@H](C(=O)NCC(N)=O)NC(=O)[C@H](CC(C)C)NC(=O)[C@H](Cc2ccccc2)N(C)C(=O)[C@H](Cc2ccc(O)cc2)NC(=O)[C@H](Cc2c[nH]c3ccccc23)NC(=O)CNC(=O)[C@H](CCC(N)=O)NC(=O)[C@H](Cc2ccc(O)cc2)NC(=O)[C@H](C(C)C)NC1=O` [Example 1016] ({CH2CO}-FYLVYQGWY[NMeF]LCG-NH2; thioether N-12), the IC50 turned out to be 0.007 µM.

As for `CC(C)C[C@@H]1NC(=O)[C@H](Cc2ccc(O)cc2)NC(=O)[C@H](Cc2ccccc2)NC(=O)CSC[C@@H](C(=O)NCC(N)=O)NC(=O)[C@H](CC(C)C)NC(=O)[C@H](Cc2ccccc2)N(C)C(=O)[C@H](Cc2ccc(O)cc2)NC(=O)[C@H](Cc2c[nH]c3ccccc23)NC(=O)[C@H](CCCCN)NC(=O)[C@H](CO)NC(=O)[C@H](Cc2ccc(O)cc2)NC(=O)[C@H](C(C)C)NC1=O` [Example 1056] ({CH2CO}-FYLVYSKWY[NMeF]LCG-NH2; thioether N-12), the half-maximal inhibitory concentration (IC50) worked out at 0.74 µM.

As for `CC(C)C[C@@H]1NC(=O)[C@H](Cc2ccccc2)NC(=O)CSC[C@@H](C(N)=O)NC(=O)[C@H](C(C)C)NC(=O)[C@H](Cc2ccccc2)N(C)C(=O)[C@H](CC(C)C)NC(=O)[C@H](Cc2c[nH]c3ccccc23)NC(=O)CN(C)C(=O)CNC(=O)[C@H](C(C)C)NC(=O)[C@H](Cc2ccc(-c3ccccc3)cc2)NC1=O` [Example 1204] ({CH2CO}-FL[Bip]VG[Sar]WL[NMeF]VC-NH2; thioether N-11), the IC50 turned out to be 0.228 µM.

For `CC(C)C[C@@H]1NC(=O)[C@H](Cc2c[nH]c3ccccc23)NC(=O)[C@H](Cc2ccccc2)NC(=O)[C@H](Cc2c[nH]c3ccccc23)NC(=O)CNC(=O)[C@H](CC(=O)O)NC(=O)[C@H](CCCNC(=N)N)NC(=O)[C@H](C(C)C)CC(=O)[C@H](C(C)C)NC(=O)[C@H](Cc2ccc(O)cc2)NC(=O)[C@H](Cc2ccccc2)NC(=O)CSC[C@@H](C(=O)NCC(N)=O)NC1=O` [Example 1011] ({CH2CO}-FY[X1]RDGWFWLCG-NH2; thioether N-11), the half-maximal inhibitory concentration (IC50) was 0.168 µM.

On to `CC(C)C[C@@H]1NC(=O)[C@H](Cc2ccc(O)cc2)NC(=O)[C@H](C)NC(=O)CSC[C@@H](C(=O)NCC(N)=O)NC(=O)[C@H](CC(C)C)NC(=O)[C@H](Cc2ccccc2)N(C)C(=O)[C@H](Cc2ccc(O)cc2)NC(=O)[C@H](Cc2c[nH]c3ccccc23)NC(=O)CNC(=O)[C@H](CO)NC(=O)[C@H](Cc2ccc(O)cc2)NC(=O)[C@H](C(C)C)NC1=O` [Example 1037] ({CH2CO}-AYLVYSGWY[NMeF]LCG-NH2; thioether N-12), for which the concentration for half-maximal inhibition (IC50) was found to be 0.251 µM.

On to `CC(C)C[C@@H]1NC(=O)[C@H](Cc2ccc(O)cc2)NC(=O)[C@H](Cc2ccccc2)NC(=O)CSC[C@@H](C(=O)NCCOCCOCC(=O)N[C@@H](CCCCN)C(N)=O)NC(=O)[C@H](CC(C)C)NC(=O)[C@H](Cc2ccccc2)N(C)C(=O)[C@H](Cc2ccc(O)cc2)NC(=O)[C@H](Cc2c[nH]c3ccccc23)NC(=O)CNC(=O)[C@H](CO)NC(=O)[C@H](Cc2ccc(O)cc2)NC(=O)[C@H](C(C)C)NC1=O` [Example 1089] ({CH2CO}-FYLVYSGWY[NMeF]LC[AEEA]K-NH2; thioether N-12), for which the IC50 was 0.077 µM.

Turning to `CC(C)C[C@@H]1NC(=O)[C@H](Cc2ccc(O)cc2)NC(=O)[C@H](Cc2ccccc2)NC(=O)CSC[C@@H](C(=O)NCC(N)=O)NC(=O)CNC(=O)[C@H](Cc2ccccc2)N(C)C(=O)[C@H](Cc2ccc(O)cc2)NC(=O)[C@H](Cc2c[nH]c3ccccc23)NC(=O)CNC(=O)[C@H](CO)NC(=O)[C@H](Cc2ccc(O)cc2)NC(=O)[C@H](C(C)C)NC1=O` [Example 1065] ({CH2CO}-FYLVYSGWY[NMeF]GCG-NH2; thioether N-12), the IC50 worked out at 0.022 µM.

For the molecule `CC(C)C[C@@H]1NC(=O)[C@H](Cc2ccc(O)cc2)NC(=O)[C@H](Cc2ccccc2)NC(=O)CSC[C@@H](C(=O)NCC(N)=O)NC(=O)[C@H](CC(C)C)NC(=O)[C@H](Cc2ccccc2)N(C)C(=O)[C@H](Cc2ccc(O)cc2)NC(=O)[C@H](Cc2c[nH]c3ccccc23)NC(=O)CNC(=O)[C@H](CO)NC(=O)[C@H](C(C)C)NC(=O)[C@H](C(C)C)NC1=O` [Example 1034] ({CH2CO}-FYLVVSGWY[NMeF]LCG-NH2; thioether N-12), the IC50 came out at 0.246 µM.

As to `CC(C)C[C@@H]1NC(=O)[C@@H](CCC(N)=O)NC(=O)[C@H](Cc2ccccc2)N(C)C(=O)CNC(=O)[C@H](Cc2ccc(O)cc2)NC(=O)[C@H](Cc2ccccc2)NC(=O)CSC[C@@H](C(N)=O)NC(=O)[C@H](Cc2c[nH]c3ccccc23)NC(=O)[C@H](Cc2ccc(O)cc2)NC1=O` [Example 1122] ({CH2CO}-FYG[NMeF][dQ]LYWC-NH2; thioether N-9), the IC50 is 0.567 µM.

Turning to `CC(C)C[C@@H]1NC(=O)[C@H](Cc2ccc(O)cc2)NC(=O)[C@H](Cc2ccccc2)NC(=O)CSC[C@@H](C(=O)NCC(N)=O)NC(=O)[C@H](CC(C)C)NC(=O)[C@H](Cc2ccccc2)N(C)C(=O)[C@H](Cc2ccc(O)cc2)NC(=O)[C@H](Cc2c[nH]c3ccccc23)NC(=O)CNC(=O)[C@H](CO)NC(=O)[C@H](CC(N)=O)NC(=O)[C@H](C(C)C)NC1=O` [Example 1024] ({CH2CO}-FYLVNSGWY[NMeF]LCG-NH2; thioether N-12), the half-inhibitory concentration (IC50) worked out at 0.62 µM.

Turning to `CC(C)C[C@@H]1NC(=O)[C@H](Cc2ccccc2)NC(=O)[C@H](Cc2ccccc2)N(C)C(=O)CNC(=O)[C@H](Cc2ccc(O)cc2)NC(=O)[C@H](Cc2ccccc2)NC(=O)CSC[C@@H](C(N)=O)NC(=O)[C@H](Cc2c[nH]c3ccccc23)NC(=O)[C@H](Cc2ccc(O)cc2)NC1=O` [Example 1102] ({CH2CO}-FYG[NMeF]FLYWC-NH2; thioether N-9), the IC50 was determined as 0.097 µM.
